The target in test [1] is T1, human GLP1 receptor (Homo sapiens, UniProt P43220).
T1 construct: expressed in transfected cells; host or cells: HEK cells, BacMam virus transduction
The test can be described thus: cAMP accumulation assay (HTRF), functional agonism of human GLP1 receptor in HEK cells. Format: cell-based. To be noted: for EC50: read-out: Human GLP-1R agonist cAMP pEC50 (converted). (In general: Cyclic AMP is a second messenger, typically raised through Gs and lowered through Gi signalling.)
Experimental: The functional activity of the peptides were assessed using a HTRF cAMP assay. pEC50 values are quoted.
cAMP production upon agonist stimulation of human GLP2 or GLP1 receptor was assessed utilizing HiRange cAMP kit (Cisbio). In brief, HEK cells were infected with either human GLP2 or GLP1 receptor BacMam virus for 24 hours and frozen for later use in the assay. […] Cells were prepared in the assay buffer (HBSS (Lonza) supplemented with 0.5 mM IBMX (Tocris)). After 45 min incubation at 37° C., the reaction was stopped by addition of the HTRF detection reagents in the lysis buffer provided in the kit.

Test [2] concerns the target T2, human GLP2 receptor (Homo sapiens, UniProt O95838).
T2 sequence (O95838 1-553): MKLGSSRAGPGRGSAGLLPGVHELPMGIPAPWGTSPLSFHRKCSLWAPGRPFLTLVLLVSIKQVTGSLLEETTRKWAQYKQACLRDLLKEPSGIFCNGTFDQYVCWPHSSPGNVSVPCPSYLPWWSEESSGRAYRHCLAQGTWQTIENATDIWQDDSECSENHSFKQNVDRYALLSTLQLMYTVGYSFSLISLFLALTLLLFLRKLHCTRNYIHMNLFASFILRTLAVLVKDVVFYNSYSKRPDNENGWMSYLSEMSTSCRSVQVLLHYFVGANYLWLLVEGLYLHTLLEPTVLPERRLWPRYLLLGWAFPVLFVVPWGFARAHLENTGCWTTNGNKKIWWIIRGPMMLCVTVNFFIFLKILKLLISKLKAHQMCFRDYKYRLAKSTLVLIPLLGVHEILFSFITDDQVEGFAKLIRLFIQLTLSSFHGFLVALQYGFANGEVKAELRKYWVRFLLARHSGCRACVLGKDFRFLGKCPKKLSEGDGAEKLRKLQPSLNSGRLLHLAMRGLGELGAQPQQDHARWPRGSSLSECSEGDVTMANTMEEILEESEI
In words: cAMP accumulation assay (HTRF), functional agonism of human GLP2 receptor in HEK cells.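 For all read-outs here: HEK cells transduced via BacMam to express human GLP2 receptor, agonist-stimulated cAMP measured by HTRF after 45 min at 37 °C in HBSS with 0.5 mM IBMX.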 The conditions noted are these: for Emax: HEK293, read-out: Human GLP-2R agonist cAMP Emax.

[3] abbreviates: HEK293, HEK cells, human GLP1 receptor BacMam, 45 min 37° C., read-out: Human GLP-1R agonist cAMP Emax.
Where [4] appears, read: HEK cells, human GLP1 receptor BacMam, 45 min 37° C.

Where two headings read alike, the source gives them in different places. Starred links: 1 amine or outer side, 2 acyl side, 3 side chain; linkers in the order of their positions; H or OH if unused. Non-standard residues stand in square brackets, D forms with d. Residues, ends and D or L forms follow the SMILES beside them. Groups on a side chain read outwards from the residue. *: point of attachment. Malonyl(2,2-Me2,histaminyl) = CC(C)(C(=O)NCCc1cnc[nH]1)C(=O)*; Ala(1H-tetrazol-5-yl) = N[C@@H](Cc1nnn[nH]1)C(=O)O; C18 diacid = O=C(O)CCCCCCCCCCCCCCCCC(=O)*; γGlu = O=C(O)[C@H](CCC(=O)[*:2])N[*:1]; αMeL = CC(C)C[C@](C)(N)C(=O)O; Lauroyl = CCCCCCCCCCCC(=O)*; Nle = CCCC[C@H](N)C(=O)O; AEEA = NCCOCCOCC(=O)O; Aib = CC(C)(N)C(=O)O; Alloc = C=CCOC(=O)*; βAla = NCCC(=O)O

T1 sequence (P43220 24-463): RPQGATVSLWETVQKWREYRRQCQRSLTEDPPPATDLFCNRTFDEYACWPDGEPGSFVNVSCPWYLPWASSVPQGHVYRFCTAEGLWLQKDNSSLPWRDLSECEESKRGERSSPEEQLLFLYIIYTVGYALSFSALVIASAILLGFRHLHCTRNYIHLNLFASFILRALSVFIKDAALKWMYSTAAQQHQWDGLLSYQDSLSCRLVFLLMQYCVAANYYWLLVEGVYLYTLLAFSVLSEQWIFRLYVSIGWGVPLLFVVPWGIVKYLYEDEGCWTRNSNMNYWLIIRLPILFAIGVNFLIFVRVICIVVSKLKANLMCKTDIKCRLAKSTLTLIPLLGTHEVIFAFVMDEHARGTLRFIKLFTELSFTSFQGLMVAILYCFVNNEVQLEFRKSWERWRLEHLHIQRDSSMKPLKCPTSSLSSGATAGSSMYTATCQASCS

Consider `C=CCOC(=O)NCCCC[C@H](NC(=O)[C@](C)(CC(C)C)NC(=O)[C@H](CC(=O)O)NC(=O)[C@H](CC(C)C)NC(=O)[C@@H](NC(=O)[C@@H](NC(=O)[C@@H](Cc1ccccc1)NC(=O)[C@H](CCCC)NC(=O)[C@H](CCC(=O)O)NC(=O)[C@H](CC(=O)O)NC(=O)[C@H](CO)NC(=O)[C@H](Cc1ccccc1)NC(=O)[C@H](CO)NC(=O)CNC(=O)[C@H](Cc1nn[nH]n1)NC(=O)C(C)(C)C(=O)NCCc1c[nH]cn1)[C@@H](C)O)[C@@H](C)CC)C(=O)N[C@@H](C)C(=O)N[C@@H](C)C(=O)N[C@@H](CCCCN)C(=O)N[C@@H](CC(=O)O)C(=O)N[C@@H](Cc1ccccc1)C(=O)N[C@H](C(=O)N[C@@H](CC(N)=O)C(=O)N[C@@H](Cc1c[nH]c2ccccc12)C(=O)N[C@@H](CC(C)C)C(=O)N[C@H](C(=O)N[C@@H](CCC(N)=O)C(=O)N[C@H](C(=O)N[C@@H](CCCCN)C(=O)N[C@H](C(=O)N[C@H](C(=O)N[C@@H](CC(=O)O)C(N)=O)[C@@H](C)O)[C@@H](C)CC)[C@@H](C)O)[C@@H](C)CC)[C@@H](C)CC` [Example 19] ({Malonyl(2,2-Me2,histaminyl)}-[Ala(1H-tetrazol-5-yl)]GSFSDE[Nle][dF]TILD[αMeL]K(Alloc)AAKDFINWLIQTKITD-NH2), for which the Emax (commonly the greatest response seen or fitted, relative to the assay's reference) in test [1] (setting [3]) was determined as 92.7%; in test [2], 102%. Besides, the EC50 in test [1] (setting [4]) was 2.51 nM; in test [2] it was 0.01 nM.

Take `CCCCCCCCCCCC(=O)NCCC(=O)NCCCC[C@H](NC(=O)[C@H](CC(N)=O)NC(=O)[C@H](CC(=O)O)NC(=O)[C@H](CC(C)C)NC(=O)[C@@H](NC(=O)[C@@H](NC(=O)[C@@H](Cc1ccccc1)NC(=O)[C@H](CCCC)NC(=O)[C@H](CCC(=O)O)NC(=O)[C@H](CC(=O)O)NC(=O)[C@H](CO)NC(=O)[C@H](Cc1ccccc1)NC(=O)[C@H](CO)NC(=O)[C@@H](C)NC(=O)[C@H](Cc1nn[nH]n1)NC(=O)C(C)(C)C(=O)NCCc1c[nH]cn1)[C@@H](C)O)[C@@H](C)CC)C(=O)NC(C)(C)C(=O)N[C@@H](C)C(=O)N[C@@H](CCCCN)C(=O)N[C@@H](CC(=O)O)C(=O)N[C@@H](Cc1ccccc1)C(=O)N[C@H](C(=O)N[C@@H](CC(N)=O)C(=O)N[C@@H](Cc1c[nH]c2ccccc12)C(=O)N[C@@H](CC(C)C)C(=O)N[C@H](C(=O)N[C@@H](CCC(N)=O)C(=O)N[C@H](C(=O)N[C@@H](CCCCN)C(=O)N[C@H](C(=O)N[C@H](C(=O)N[C@@H](Cc1ccccc1)C(N)=O)[C@@H](C)O)[C@@H](C)CC)[C@@H](C)O)[C@@H](C)CC)[C@@H](C)CC` [Example 21] ({Malonyl(2,2-Me2,histaminyl)}-[Ala(1H-tetrazol-5-yl)][dA]SFSDE[Nle][dF]TILDNK([βAla-Lauroyl])[Aib]AKDFINWLIQTKITF-NH2; C-terminus assumed): the Emax in test [1] (HEK293, read-out: Human GLP-1R agonist cAMP Emax) is 91.5%; in test [2], 99.7%.

As for `CCCC[C@H](NC(=O)[C@H](CCC(=O)O)NC(=O)[C@H](CC(=O)O)NC(=O)[C@H](CO)NC(=O)[C@H](Cc1ccccc1)NC(=O)[C@H](CO)NC(=O)CNC(=O)[C@H](Cc1nn[nH]n1)NC(=O)C(C)(C)C(=O)NCCc1c[nH]cn1)C(=O)N[C@H](Cc1ccccc1)C(=O)N[C@H](C(=O)N[C@H](C(=O)N[C@@H](CC(C)C)C(=O)N[C@@H](CC(=O)O)C(=O)N[C@@H](CC(C)C)C(=O)N[C@@H](CCCCNC(=O)CC[C@H](NC(=O)COCCOCCNC(=O)COCCOCCNC(=O)CCCCCCCCCCCCCCCCC(=O)O)C(=O)O)C(=O)N[C@@H](C)C(=O)N[C@@H](C)C(=O)N[C@@H](CCCCN)C(=O)N[C@@H](CC(=O)O)C(=O)N[C@@H](Cc1ccccc1)C(=O)N[C@H](C(=O)N[C@@H](CC(N)=O)C(=O)N[C@@H](Cc1c[nH]c2ccccc12)C(=O)N[C@@H](CC(C)C)C(=O)N[C@H](C(=O)N[C@@H](CCC(N)=O)C(=O)N[C@H](C(=O)N[C@@H](CCCCN)C(=O)N[C@H](C(=O)N[C@H](C(=O)N[C@@H](CC(=O)O)C(N)=O)[C@@H](C)O)[C@@H](C)CC)[C@@H](C)O)[C@@H](C)CC)[C@@H](C)CC)[C@@H](C)CC)[C@@H](C)O` [Example 22] ({Malonyl(2,2-Me2,histaminyl)}-[Ala(1H-tetrazol-5-yl)]GSFSDE[Nle][dF]TILDLK([γGlu-AEEA-AEEA-C18 diacid])AAKDFINWLIQTKITD-NH2), the Emax turned out to be 87.6% in test [1] (setting [3]) and 101% in test [2]. For the same compound, the EC50 in test [1] (setting [4]) is 3.16 nM; in test [2] it was 0.0158 nM.

For the compound `CCCC[C@H](NC(=O)[C@H](CCC(=O)O)NC(=O)[C@H](CC(=O)O)NC(=O)[C@H](CO)NC(=O)[C@H](Cc1ccccc1)NC(=O)[C@H](CO)NC(=O)CNC(=O)[C@H](Cc1nn[nH]n1)NC(=O)C(C)(C)C(=O)NCCc1c[nH]cn1)C(=O)N[C@H](Cc1ccccc1)C(=O)N[C@H](C(=O)N[C@H](C(=O)N[C@@H](CC(C)C)C(=O)N[C@@H](CC(=O)O)C(=O)N[C@@H](CC(C)C)C(=O)N[C@@H](CCCCNC(=O)CC[C@H](NC(=O)COCCOCCNC(=O)COCCOCCNC(=O)CCCCCCCCCCCCCCCCC(=O)O)C(=O)O)C(=O)N[C@@H](C)C(=O)N[C@@H](C)C(=O)N[C@@H](CCCCN)C(=O)N[C@@H](CC(=O)O)C(=O)N[C@@H](Cc1ccccc1)C(=O)N[C@H](C(=O)N[C@@H](CC(N)=O)C(=O)N[C@@H](Cc1c[nH]c2ccccc12)C(=O)N[C@@H](CC(C)C)C(=O)N[C@H](C(=O)N[C@@H](CCC(N)=O)C(=O)N[C@H](C(=O)N[C@@H](CCCCN)C(=O)N[C@H](C(=O)N[C@H](C(=O)N[C@@H](Cc1ccccc1)C(N)=O)[C@@H](C)O)[C@@H](C)CC)[C@@H](C)O)[C@@H](C)CC)[C@@H](C)CC)[C@@H](C)CC)[C@@H](C)O` [Example 23] ({Malonyl(2,2-Me2,histaminyl)}-[Ala(1H-tetrazol-5-yl)]GSFSDE[Nle][dF]TILDLK([γGlu-AEEA-AEEA-C18 diacid])AAKDFINWLIQTKITF-NH2), the Emax in test [1] (setting [3]) is 89.8%; in test [2], 103%. The values for the EC50 in test [1] (setting [4]) and in test [2] were 12.6 nM and 0.0316 nM, respectively.

Regarding Exendin-4 [reference compound], in test [1], the “Human GLP-1R agonist cAMP Emax” value amounted to 99.7. In addition, the “Human GLP-2R agonist cAMP Emax” value in test [2] (HEK cells, human GLP2 receptor BacMam, 45 min 37° C.) worked out at 1.6.
